Experiments:
cells [1] = conditions: Homo sapiens, MCF7, 72 h
Description: Cytotoxicity against human MCF7 cells after 72 hrs by MTT assay

[2] = Cytotoxicity against human A549 cells after 72 hrs by MTT assay; format: functional, cell-based; conditions: A549, 72 h
cells [3] = conditions: Homo sapiens, PC-3, 72 h
Description: Cytotoxicity against human PC3 cells after 72 hrs by MTT assay

[4] = molecular target: Vascular endothelial growth factor receptor 2 (Homo sapiens, UniProt P35968); experiment: Inhibition of VEGFR2 (unknown origin) by mobility shift/LanthaScreen assay
Sequence of Vascular endothelial growth factor receptor 2 (P35968 whole entry): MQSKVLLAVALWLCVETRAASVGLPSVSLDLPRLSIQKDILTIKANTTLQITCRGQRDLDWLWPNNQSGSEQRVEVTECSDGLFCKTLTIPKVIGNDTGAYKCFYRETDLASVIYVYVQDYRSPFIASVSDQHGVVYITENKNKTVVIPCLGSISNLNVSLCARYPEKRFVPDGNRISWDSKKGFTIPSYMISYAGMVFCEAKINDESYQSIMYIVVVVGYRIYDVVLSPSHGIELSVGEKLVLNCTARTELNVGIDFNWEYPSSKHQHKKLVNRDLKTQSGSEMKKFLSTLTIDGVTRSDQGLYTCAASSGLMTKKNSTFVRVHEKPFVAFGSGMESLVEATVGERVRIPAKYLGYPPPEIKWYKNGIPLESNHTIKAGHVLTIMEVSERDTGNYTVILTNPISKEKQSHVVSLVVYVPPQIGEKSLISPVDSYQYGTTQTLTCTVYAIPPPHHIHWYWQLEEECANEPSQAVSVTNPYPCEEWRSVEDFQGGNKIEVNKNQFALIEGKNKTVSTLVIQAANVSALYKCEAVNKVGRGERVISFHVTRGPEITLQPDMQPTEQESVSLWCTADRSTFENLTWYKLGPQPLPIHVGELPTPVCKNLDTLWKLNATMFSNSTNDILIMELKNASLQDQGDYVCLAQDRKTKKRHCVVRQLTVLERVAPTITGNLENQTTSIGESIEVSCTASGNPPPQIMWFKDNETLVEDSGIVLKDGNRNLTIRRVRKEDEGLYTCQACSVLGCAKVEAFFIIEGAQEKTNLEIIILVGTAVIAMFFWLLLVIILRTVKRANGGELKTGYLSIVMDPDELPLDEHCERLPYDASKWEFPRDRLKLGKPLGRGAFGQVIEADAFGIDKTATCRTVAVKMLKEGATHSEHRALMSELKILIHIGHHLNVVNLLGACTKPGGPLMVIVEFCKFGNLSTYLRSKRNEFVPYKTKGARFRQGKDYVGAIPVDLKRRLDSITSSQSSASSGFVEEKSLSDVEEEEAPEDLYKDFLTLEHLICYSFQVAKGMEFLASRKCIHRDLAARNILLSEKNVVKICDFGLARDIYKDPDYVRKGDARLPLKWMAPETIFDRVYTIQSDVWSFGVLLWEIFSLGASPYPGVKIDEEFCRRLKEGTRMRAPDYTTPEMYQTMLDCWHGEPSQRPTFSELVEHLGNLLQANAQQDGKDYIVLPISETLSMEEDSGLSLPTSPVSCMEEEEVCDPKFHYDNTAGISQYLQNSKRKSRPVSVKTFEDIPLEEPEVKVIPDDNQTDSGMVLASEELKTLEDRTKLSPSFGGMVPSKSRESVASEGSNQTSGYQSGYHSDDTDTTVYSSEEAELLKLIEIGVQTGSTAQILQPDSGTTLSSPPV

| Structure (SMILES) | IC50 (cells [1]) | IC50 [2] | IC50 (cells [3]) | IC50 [4] |
| --- | --- | --- | --- | --- |
| CNC(=O)c1cc(Oc2ccc(NC(=O)c3nccc(-c4ccc(OC)cc4)n3)cc2)ccn1 | 35.2 µM | 11.1 µM | 14.2 µM | – |
| CNC(=O)c1cc(Oc2ccc(NC(=O)c3cc(-c4ccccc4)ncn3)cc2)ccn1 | 18.2 µM | 27.1 µM | 44.2 µM | – |
| CNC(=O)c1cc(Oc2ccc(NC(=O)c3cc(-c4ccccc4)ncn3)cc2F)ccn1 | 32.4 µM | 23.2 µM | 44.3 µM | – |
| CNC(=O)c1cc(Oc2ccc(NC(=O)c3cc(-c4ccc(C)cc4)ncn3)cc2F)ccn1 | 19.2 µM | 13.2 µM | 40.2 µM | – |
| CNC(=O)c1cc(Oc2ccc(NC(=O)c3cc(-c4ccc(C(F)(F)F)cc4)ncn3)cc2F)ccn1 | > 100 µM | > 100 µM | > 100 µM | – |
| CNC(=O)c1cc(Oc2ccc(NC(=O)c3cc(-c4ccc(F)cc4)ncn3)cc2)ccn1 | > 100 µM | > 100 µM | > 100 µM | – |
| CNC(=O)c1cc(Oc2ccc(NC(=O)c3nccc(-c4ccc(C)cc4)n3)cc2)ccn1 | 44.2 µM | 28.4 µM | 13.1 µM | – |
| CNC(=O)c1cc(Oc2ccc(NC(=O)c3cc(-c4ccc(Cl)cc4)ncn3)cc2)ccn1 | > 100 µM | > 100 µM | > 100 µM | – |
| CCc1ccc(-c2cc(C(=O)Nc3ccc(Oc4ccnc(C(=O)NC)c4)cc3)ncn2)cc1 | 6.35 µM | 13.3 µM | 29.3 µM | 3.6 µM |
| CNC(=O)c1cc(Oc2ccc(NC(=O)c3cc(-c4ccc(OC)cc4)ncn3)cc2)ccn1 | 29.2 µM | 13.5 µM | 38.8 µM | – |
| CNC(=O)c1cc(Oc2ccc(NC(=O)c3nccc(-c4cccc(Cl)c4)n3)cc2)ccn1 | > 100 µM | > 100 µM | 20.8 µM | – |
| CNC(=O)c1cc(Oc2ccc(NC(=O)c3cc(-c4ccc(Cl)cc4)ncn3)cc2F)ccn1 | > 100 µM | > 100 µM | > 100 µM | – |
| CNC(=O)c1cc(Oc2ccc(NC(=O)c3cc(-c4ccc(C(F)(F)F)cc4)ncn3)cc2)ccn1 | > 100 µM | > 100 µM | > 100 µM | – |
| CNC(=O)c1cc(Oc2ccc(NC(=O)c3cc(-c4ccc(OC)cc4)ncn3)cc2F)ccn1 | 46.2 µM | 34.5 µM | 56.2 µM | – |
| CNC(=O)c1cc(Oc2ccc(NC(=O)c3cc(-c4ccc(C)cc4)ncn3)cc2)ccn1 | 34.6 µM | > 100 µM | > 100 µM | – |
| CNC(=O)c1cc(Oc2ccc(NC(=O)c3nccc(-c4ccc(C)cc4)n3)cc2F)ccn1 | 69.2 µM | 33.2 µM | 28.4 µM | – |
| CNC(=O)c1cc(Oc2ccc(NC(=O)c3cc(-c4ccc(F)cc4)ncn3)cc2F)ccn1 | > 100 µM | > 100 µM | > 100 µM | – |
| CCc1ccc(-c2cc(C(=O)Nc3ccc(Oc4ccnc(C(=O)NC)c4)c(F)c3)ncn2)cc1 | 7.63 µM | 3.39 µM | 15.6 µM | 1.2 µM |
| CNC(=O)c1cc(Oc2ccc(NC(=O)c3nccc(-c4ccccc4)n3)cc2)ccn1 | 39.1 µM | 26.2 µM | 7.31 µM | – |
| CNC(=O)c1cc(Oc2ccc(NC(=O)c3cc(-c4ccc(Br)cc4)ncn3)cc2F)ccn1 | > 100 µM | > 100 µM | > 100 µM | – |
| CNC(=O)c1cc(Oc2ccc(NC(=O)c3nccc(-c4ccc(OC)cc4)n3)cc2F)ccn1 | > 100 µM | 16.6 µM | 24.3 µM | – |
| CNC(=O)c1cc(Oc2ccc(NC(=O)c3cc(-c4ccc(Br)cc4)ncn3)cc2)ccn1 | > 100 µM | > 100 µM | > 100 µM | – |
| CNC(=O)c1cc(Oc2ccc(NC(=O)c3nccc(-c4ccc([N+](=O)[O-])cc4)n3)cc2)ccn1 | > 100 µM | > 100 µM | > 100 µM | – |

Reference: ChEMBL document CHEMBL3864193 (Bioorg Med Chem, 2016)
